Data taken from ChEMBL document CHEMBL1150548, “Dopamine autoreceptor agonists: computational studies, synthesis and biological investigations” (Bioorg Med Chem Lett, 1993).
pIC50: −log10 of the molar value.

What was measured:
D(1A) dopamine receptor = D(1A) dopamine receptor (Rattus norvegicus, UniProt P18901); experiment: Compound was evaluated for binding affinity to Dopamine receptor D1 labeled with [3H]-SCH- 23390 (0.3 nM) in rat striatal membranes; format: cell membranes, Striatum, Membrane
D(2) dopamine receptor [1] = target: T1, D(2) dopamine receptor (Rattus norvegicus, UniProt P61169); experiment: Compound was evaluated for binding affinity to Dopamine receptor D2 labeled with [3H]spiroperidol (0.5 nM) in rat striatal membranes; format: cell membranes, Striatum, Membrane
D(2) dopamine receptor [2] = target: T1, D(2) dopamine receptor; experiment: Compound was evaluated for binding affinity to Dopamine receptor D2 labeled with [3H]-SND 919 (0.5 nM) in rat striatal membranes; format: cell membranes, Striatum, Membrane
Mus musculus [3] = experiment: Compound was evaluated for agonistic activity (DA receptor) by inhibition of GBL (gamma-butyralactone)-induced L-Dopa accumulation at a dose 10 mg/kg; format: functional
Mus musculus [4] = experiment: Compound was evaluated for agonistic activity (DA receptor) by inhibition of GBL (gamma-butyralactone)-induced L-Dopa accumulation at a dose of 10 mg/Kg; format: functional

D(1A) dopamine receptor, sequence (P18901 whole entry): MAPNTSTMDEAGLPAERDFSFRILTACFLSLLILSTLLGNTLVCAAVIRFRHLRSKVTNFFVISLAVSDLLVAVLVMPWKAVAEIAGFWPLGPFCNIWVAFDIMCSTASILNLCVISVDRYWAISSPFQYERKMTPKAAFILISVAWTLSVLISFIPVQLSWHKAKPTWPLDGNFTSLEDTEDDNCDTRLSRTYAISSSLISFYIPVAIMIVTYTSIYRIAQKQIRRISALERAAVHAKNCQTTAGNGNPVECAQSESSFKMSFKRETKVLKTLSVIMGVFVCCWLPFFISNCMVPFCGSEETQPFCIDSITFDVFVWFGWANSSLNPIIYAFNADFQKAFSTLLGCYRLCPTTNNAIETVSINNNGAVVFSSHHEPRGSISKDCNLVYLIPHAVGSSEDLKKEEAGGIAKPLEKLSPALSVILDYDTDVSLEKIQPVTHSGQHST
T1 sequence (P61169 whole entry): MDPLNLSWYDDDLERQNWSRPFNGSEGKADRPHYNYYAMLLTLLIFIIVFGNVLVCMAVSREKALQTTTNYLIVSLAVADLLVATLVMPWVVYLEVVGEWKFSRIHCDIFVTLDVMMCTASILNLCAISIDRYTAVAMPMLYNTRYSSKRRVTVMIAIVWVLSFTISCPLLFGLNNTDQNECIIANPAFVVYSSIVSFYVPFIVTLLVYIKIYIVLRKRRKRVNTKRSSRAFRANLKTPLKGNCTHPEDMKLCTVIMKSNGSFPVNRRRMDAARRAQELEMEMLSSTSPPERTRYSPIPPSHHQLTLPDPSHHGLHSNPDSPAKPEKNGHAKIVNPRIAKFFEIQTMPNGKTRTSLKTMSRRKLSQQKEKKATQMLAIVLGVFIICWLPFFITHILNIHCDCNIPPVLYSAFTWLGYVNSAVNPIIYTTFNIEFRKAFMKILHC

pIC50 (D(1A) dopamine receptor)	pIC50 (D(2) dopamine receptor [1])	pIC50 (D(2) dopamine receptor [2])	SMILES	inhibition in vivo at 10 mg/kg (Mus musculus [3])	inhibition in vivo at 10 mg/kg (Mus musculus [4])
4.84	5.15	7.52	CCCN(CCC)[C@H]1CCn2cccc2C1	62%	–
< 4.00	< 4.00	5.57	CCCNC1Cc2cccn3ncc(c23)C1 (centres undefined)	–	–
< 4.00	4.30	6.59	CCCN(CCC)C1Cc2cccn3ncc(c23)C1 (centres undefined)	–	57%
< 4.00	< 4.00	5.55	NC1Cc2cccn3ncc(c23)C1 (centres undefined)	–	–
